Data taken from ChEMBL document CHEMBL1156814, “Highly suppressing wild-type HIV-1 and Y181C mutant HIV-1 strains by 10-chloromethyl-11-demethyl-12-oxo-calanolide A with druggable profile” (J Med Chem, 2010).

Columns and labels:
[1] = tested on: Human immunodeficiency virus 1; experiment: Antiviral activity against 100 TCID50 HIV1 infected in human TZM-b1 cells assessed as inhibition of viral replication by pseudovirus based assay; format: functional, organism-based
[2] = Toxicity in African green monkey Vero cells; format: cell-based; details: chlorocebus sabaeus
[3] = Selectivity index, ratio of IC50 for African green monkey Vero cells to EC50 for HIV1; format: toxicity, cell-based; details: read-out: Selectivity Index
[4] = Human immunodeficiency virus 1, TZM-b1, read-out: EC50

SMILES | EC50 [1, 4] [µM] | EC50 ([1]; tzm-b1) | other results
CCCc1cc(=O)oc2c3c(c4c(c12)OC(C)(C)C=C4)OC(CNC(=O)Nc1ccc(F)cc1)CC3=O (configuration not stated) |  | Not Active | 
CCCc1cc(=O)oc2c3c(c4c(c12)OC(C)(C)C=C4)OC(CNC(=O)Nc1ccccc1OC)CC3=O (configuration not stated) |  | Not Active | 
CCCc1cc(=O)oc2c3c(c4c(c12)OC(C)(C)C=C4)OC(CN1CCCC1)CC3=O (configuration not stated) |  | Not Active | 
CCCc1cc(=O)oc2c3c(c4c(c12)OC(C)(C)C=C4)OC(CS(C)(=O)=O)CC3=O (configuration not stated) | 33.9 |  | 
CCCc1cc(=O)oc2c3c(c4c(c12)OC(C)(C)C=C4)OC(CNS(=O)(=O)c1ccc(NC(C)=O)cc1)CC3=O (configuration not stated) |  | Not Active | 
CCCc1cc(=O)oc2c3c(c4c(c12)OC(C)(C)C=C4)OC(CNS(=O)(=O)c1ccc(F)cc1)CC3=O (configuration not stated) |  | Not Active | 

Now from value to compound, other results behind:

EC50 [1, 4] [µM] | EC50 ([1]; tzm-b1) | SMILES | other results
0.18 |  | CCCc1cc(=O)oc2c3c(c4c(c12)OC(C)(C)C=C4)OC(CBr)CC3=O (configuration not stated) | 
0.456 |  | CCCc1cc(=O)oc2c3c(c4c(c12)OC(C)(C)C=C4)OC(CSC)CC3=O (configuration not stated) | 
0.18 |  | CCCc1cc(=O)oc2c3c(c4c(c12)OC(C)(C)C=C4)OC(COC)CC3=O (configuration not stated) | CC50 [2]: 9.89 µM; selectivity ratio [3]: 39.7
14.4 |  | CCCc1cc(=O)oc2c3c(c4c(c12)OC(C)(C)C=C4)OC(C[S+](C)[O-])CC3=O (configuration not stated) | 
